Experimental data reported in US20110253633A1, “CATANIONIC VESICLES, PROCESS FOR PREPARING SAME AND APPLICATIONS THEREOF” (COMMISSARIAT A L'ENERGIE ATOMIQUE ET AUX ENERGIES ALT., priority 2008, published 2011).
Read-outs that look alike come from different tables or passages of the source.

Key:
[1] = Confocal microscopy of solutes with low internal pH vesicles; assay type: physicochemical; details: for localisation of solute encapsulated during preparation: confocal microscopy after 7 days of dialysis; for waiting time before the vesicles absorb the solute spontaneously: vesicles prepared without addition of solute
Protocol: Optionally, solute to be encapsulated can be added. If the vesicles were prepared without addition of solute in the preceding stages, they are then able to absorb certain compounds present in solution, for example Rhodamine B or Rhodamine 6G. It is sufficient to add the solute and wait about ten minutes before the vesicles absorb the solute spontaneously.
The presence of vesicles in the solution is checked by confocal microscopy after labelling with Oregon Green 488: take about 100 mg of solution, and add 20 μL of a saturated aqueous solution of Oregon Green 488, diluted 10-fold. Observation by confocal microscopy is carried out according to the usual techniques. An image of the vesicles is obtained, with the positive walls marked with the negative stain (FIG. 2). The vesicles are well separated.
The presence of vesicles in the solution and encapsulation of Rhodamine 6G is checked by confocal microscopy according to the usual techniques. […] The same observation can be carried out after labelling with Oregon Green 488: to 20 μL of solution, add 10 μL of a saturated aqueous solution of Oregon Green 488, diluted 10-fold.
After 7 days of dialysis, withdraw the solution from the cassette using a syringe and store it at room temperature.
After 20 minutes, zones with high concentration of Rhodamine 6G are observed by confocal microscopy (FIG. 14).

[2] = Confocal microscopy of solutes with high internal pH vesicles; assay type: physicochemical; details: Example 11 vesicles, waiting time of one minute
Protocol: The presence of vesicles in the solution is checked by confocal microscopy after adding Rhodamine 6G: take about 100 μL of solution, and add 10 μL of an aqueous solution of Rhodamine 6G at 10 μM. Observation by confocal microscopy is carried out according to the usual techniques.
The presence of vesicles in the solution is checked by confocal microscopy by adding Rhodamine 6G as described above.

[3] = Permeability to anions and degree of encapsulation (dialysis, fluorescence at 522 nm); assay type: physicochemical; details: of the initial Oregon Green
Protocol: Stir at 50° C. for 72 hours.
The solution is made up to 3 mL by adding a solution of CTACl at 1.5 mM in a borate buffer solution at pH=9. The fluorescence emission at 522 nm with excitation at 502 nm is measured with a Varian Cary Eclipse fluorescence spectrometer for all the solutions prepared from each of the samples taken. The concentration of Oregon Green in each sample is proportional to the fluorescence emission to within an arbitrary factor that is not important for the measurement.
(FIG. 11). […] The ratio of the fluorescence measured from the initial solution to the fluorescence extrapolated to t=0 makes it possible to measure the degree of encapsulation. 60% of the initial Oregon Green is therefore encapsulated.

Row | spontaneous encapsulation of solute added after dialysis [2] | degree of encapsulation [3] | penetration of stain added after dialysis ([1]; Example 2 vesicles, excess of negative stain) | SMILES | concentration in the vesicles extrapolated to t=0 (initial concentration in the solution 1.5 mM) | permeability of the vesicles to Rhodamine 6G (not told) | degree of encapsulation (of the initial Rhodamine 6G) | spontaneous encapsulation of solute added after dialysis ([1]; Example 12 vesicles, after 20 minutes) | localisation of solute encapsulated during preparation [1] | waiting time before the vesicles absorb the solute spontaneously [1]
1 |  |  |  | CC/N=c1\cc2oc3cc(NCC)c(C)cc3c(-c3ccccc3C(=O)OCC)c-2cc1C.Cl [Rhodamine 6G, Chloride of Rhodamine 6G] | 500 µM | 8.1 10^−12 cm/s | 30% | accumulated preferentially | present inside the vesicles, and exclusively inside | about ten
2 |  |  |  | CCN(CC)c1ccc2c(-c3ccccc3C(=O)O)c3ccc(=[N+](CC)CC)cc-3oc2c1.[Cl-] [Rhodamine B, Chloride of Rhodamine B] |  |  |  |  | exclusively encapsulated inside the vesicles, not outside | about ten
3 | spontaneous encapsulation | 60% | does not penetrate into the vesicles | O=C(O)c1ccccc1-c1c2cc(F)c(=O)cc-2oc2cc(O)c(F)cc12 [Oregon Green] |  |  |  |  |  | 
